Results: the NIST ThermoML archive (doi:10.1021/je0504109)
± gives the expanded uncertainty stated by the source.

Experiment: xn = mol fraction of the nth substance listed
Conditions: 298.15 K, 101 kPa, Liquid

C1COCO1 [1,3-dioxolane] + CCCCOC(C)=O
Conditions	mass density [kg/m3]	viscosity [mPa·s]
x1 = 0.1484	890.7 ± 0.7	0.621 ± 0.011
x1 = 0.2816	906.9 ± 0.7	0.599 ± 0.011
x1 = 0.4019	923.3 ± 0.7	0.588 ± 0.011
x1 = 0.5111	940.3 ± 0.8	0.583 ± 0.011
x1 = 0.6106	957.8 ± 0.8	0.577 ± 0.011
x1 = 0.7017	976.1 ± 0.8	0.571 ± 0.01
x1 = 0.7853	995.2 ± 0.8	0.565 ± 0.01
x1 = 0.8625	1015 ± 0.8	0.556 ± 0.01
x1 = 0.9338	1035.6 ± 0.9	0.544 ± 0.01
x1 = 1	1057.1 ± 0.9	0.531 ± 0.01

CCCCN [1-butanamine] + C1COCO1
Conditions	mass density [kg/m3]	viscosity [mPa·s]
x2 = 0	731.9 ± 0.6	0.493 ± 0.009
x2 = 0.1001	755.1 ± 0.6	0.477 ± 0.009
x2 = 0.2001	779.6 ± 0.6	0.463 ± 0.009
x2 = 0.3002	805.8 ± 0.6	0.458 ± 0.009
x2 = 0.4002	833.8 ± 0.7	0.455 ± 0.009
x2 = 0.5002	864.1 ± 0.7	0.456 ± 0.009
x2 = 0.6002	896.8 ± 0.7	0.464 ± 0.009
x2 = 0.7002	932.1 ± 0.8	0.478 ± 0.009
x2 = 0.8001	970.3 ± 0.8	0.496 ± 0.009
x2 = 0.9001	1011.8 ± 0.8	0.513 ± 0.01

C1COCO1 [1,3-dioxolane] + CCCCN
x1 = 1
Conditions	mass density [kg/m3]	viscosity [mPa·s]
–	1057.1 ± 0.9	0.531 ± 0.01

CCCC(=O)O [butanoic acid] + C1COCCO1
Conditions	mass density [kg/m3]	viscosity [mPa·s]
x2 = 0	952.8 ± 0.8	1.396 ± 0.023
x2 = 0.1	961.7 ± 0.8	1.504 ± 0.025
x2 = 0.2	970.3 ± 0.8	1.57 ± 0.026
x2 = 0.3	978.4 ± 0.8	1.587 ± 0.026
x2 = 0.4	986.1 ± 0.8	1.572 ± 0.026
x2 = 0.5	993.4 ± 0.8	1.507 ± 0.025
x2 = 0.6	1000.2 ± 0.8	1.443 ± 0.024
x2 = 0.7	1006.8 ± 0.8	1.362 ± 0.022
x2 = 0.8	1013.1 ± 0.8	1.293 ± 0.021
x2 = 0.9	1019.4 ± 0.8	1.241 ± 0.021

CCCC(=O)O [butanoic acid] + C1COCO1
Conditions	mass density [kg/m3]	viscosity [mPa·s]
x2 = 0	952.8 ± 0.8	1.396 ± 0.023
x2 = 0.1167	963.1 ± 0.8	1.297 ± 0.021
x2 = 0.2292	973.7 ± 0.8	1.202 ± 0.02
x2 = 0.3376	984.3 ± 0.8	1.111 ± 0.019
x2 = 0.4422	995.3 ± 0.8	1.023 ± 0.017
x2 = 0.5432	1006.1 ± 0.8	0.938 ± 0.016
x2 = 0.6408	1016.9 ± 0.8	0.854 ± 0.015
x2 = 0.7351	1027.2 ± 0.8	0.77 ± 0.013
x2 = 0.8263	1037.4 ± 0.8	0.688 ± 0.012
x2 = 0.9146	1047.3 ± 0.9	0.608 ± 0.011

C1COCCO1 [1,4-dioxane] + CCCCN
x1 = 1
Conditions	mass density [kg/m3]	viscosity [mPa·s]
–	1026.5 ± 0.8	1.196 ± 0.02

CCCCN [1-butanamine] + C1COCCO1
Conditions	mass density [kg/m3]	viscosity [mPa·s]
x2 = 0	731.9 ± 0.6	0.493 ± 0.009
x2 = 0.0855	753.4 ± 0.6	0.509 ± 0.01
x2 = 0.1738	776.1 ± 0.6	0.524 ± 0.01
x2 = 0.265	800.1 ± 0.6	0.541 ± 0.01
x2 = 0.3594	825.8 ± 0.7	0.56 ± 0.01
x2 = 0.4569	853.3 ± 0.7	0.59 ± 0.011
x2 = 0.5579	882.8 ± 0.7	0.637 ± 0.011
x2 = 0.6625	914.7 ± 0.7	0.699 ± 0.012
x2 = 0.7709	949.2 ± 0.8	0.792 ± 0.014
x2 = 0.8834	986.4 ± 0.8	0.941 ± 0.016

C1COCO1 [1,3-dioxolane] + CCC(C)=O
Conditions	mass density [kg/m3]	viscosity [mPa·s]
x1 = 0.0976	818.9 ± 0.6	0.384 ± 0.008
x1 = 0.1957	840.5 ± 0.7	0.397 ± 0.008
x1 = 0.2944	863.1 ± 0.7	0.411 ± 0.008
x1 = 0.3935	886.8 ± 0.7	0.426 ± 0.008
x1 = 0.4933	911.8 ± 0.7	0.441 ± 0.009
x1 = 0.5935	938.1 ± 0.8	0.456 ± 0.009
x1 = 0.6943	965.5 ± 0.8	0.473 ± 0.009
x1 = 0.7956	994.2 ± 0.8	0.491 ± 0.009
x1 = 0.8975	1024.5 ± 0.8	0.51 ± 0.01
x1 = 1	1057.1 ± 0.9	0.531 ± 0.01

C1COCCO1 [1,4-dioxane] + CCCC(=O)O
x1 = 1
Conditions	mass density [kg/m3]	viscosity [mPa·s]
–	1026.5 ± 0.8	1.196 ± 0.02
